In brackets after ≈: the same amount, converted by molar mass. Blank lines part the entries; values can stand above or below the compound they belong to.
Tests used:
Type in all cases: physicochemical
[1] = Polymorph screen: relative stability of forms by XRPD re-analysis after storage; conditions: for Stability by XRPD (form found on XRPD re-analysis after storage): storage at ambient conditions
Description: (§1) The polymorph screening study was carried out in two phases. In Phase 1, the synthesized Nor-UDCA, designated Form A, was characterised by XRPD, digital imaging, thermal analysis (DSC and TGMS). The purity of the material was checked by HPLC/RI. A qualitative solubility determination with 20 solvents was carried out in order to fit the data for the selection of the crystallization solvents to be employed in the polymorph screen. Additionally, the solids recovered by evaporation of solutions used in the solubility experiments were analyzed by XRPD and digital imaging to obtain information on the potential form formation of new forms of Nor-UDCA (see Table 2). Grinding tests were conducted in order to support the definition of the experimental space for this crystallization mode. Amorphous material to be used as starting material was intentionally produced by freeze-drying from 1,4-dioxane/water (95/5%) solution and by grinding (ball-milling) for “cooling/evaporation and vapour diffusion into solids experiments”. In Phase 2, 217 experiments divided across different crystallization modes were performed. The applied crystallization modes were: • Combined cooling/evaporative crystallization experiments starting with amorphous material • Crystallization with forward anti-solvent addition • Slurry experiments at two temperatures • Vapour diffusion into solutions • Vapour diffusion onto amorphous solids • Crystallization by grinding with 24 solvents and one dry.
Upon completion of the experiments, XRPD and digital images analyses were performed on all crystallized solids.

[2] = Qualitative solubility determination of Nor-UDCA with 20 solvents; conditions: thermodynamic from solid
Description: as §1

[3] = Particle size determination by laser diffraction; conditions: dry method, Malvern
Description: The particle size distribution can be determined as described herein in Example 3 and/or according the European Pharmacopeia (Ph. Eur.), edition 6.8. section 2.9.31, preferably with a Mastersizer 2000 by Malvern instruments. The evaluation is typically carried out by the Fraunhofer model.
The precipitation of the free acid leads to Nor-UDCA particles of a consistent and defined size distribution. Micronization by milling in order to control the crystal size of Nor-UDCA can be avoided.

[4] = Particle size analysis of crystals by microscopy (Reference Example)
Description: Various properties of Nor-UDCA synthesized according to Schteingart and Hofmann (1988) Journal of Lipid Research Vol. 29(10), […] were investigated.
The particle size of the crystals obtained was analyzed by microscopy. […] This particle size distribution is not suitable for the intended pharmaceutical preparation. Milling/micronization is not desired as this would result in a reduction of the polymorphic purity and/or of the thermodynamic stability of the Nor-UDCA.

Compound: C[C@H](CC(=O)O)[C@H]1CC[C@H]2[C@@H]3[C@@H](O)C[C@@H]4C[C@H](O)CC[C@]4(C)[C@H]3CC[C@]12C [Form B]
- Time to conversion to Form A (XRPD re-analysis) ([1]; stored at ambient conditions in well and experimental vial): ≤ 10 days

- solubility ([2]; dichloromethane, organic solvent or mixture, solvent Dichlormethane): < 13 mg/mL
- solubility ([2]; organic solvent or mixture, solvent 1,2-Dimethoxyethane): < 14 mg/mL
- solubility ([2]; organic solvent or mixture, solvent 1,2-Ethanediol): < 14 mg/mL
- solubility ([2]; organic solvent or mixture, solvent 1,4-Dioxane): 21 mg/mL (≈ 55.5 mM)
- solubility ([2]; organic solvent or mixture, solvent 2,2,2-Trifluoroethanol): 21 mg/mL (≈ 55.5 mM)
- solubility ([2]; organic solvent or mixture, solvent 2-Butanone): < 14 mg/mL
- solubility ([2]; organic solvent or mixture, solvent Acetone): < 14 mg/mL
- solubility ([2]; organic solvent or mixture, solvent Acetonitrile): < 13 mg/mL
- solubility ([2]; organic solvent or mixture, solvent Chloroform): < 14 mg/mL
- solubility ([2]; organic solvent or mixture, solvent Cyclohexane): < 14 mg/mL
- solubility ([2]; organic solvent or mixture, solvent Dimethylsulfoxide): 207 mg/mL (≈ 547 mM)
- solubility ([2]; organic solvent or mixture, solvent Methanol): 70 mg/mL (≈ 185 mM)
- solubility ([2]; organic solvent or mixture, solvent N-Methyl-2-pyrrolidone): 404 mg/mL (≈ 1070 mM)
- solubility ([2]; organic solvent or mixture, solvent Nitrobenzene): < 13 mg/mL
- solubility ([2]; organic solvent or mixture, solvent Nitromethane): < 13 mg/mL
- solubility ([2]; organic solvent or mixture, solvent Pentane): < 13 mg/mL
- solubility ([2]; organic solvent or mixture, solvent Toluene): < 12 mg/mL
- solubility ([2]; tert-butyl methyl ether, organic solvent or mixture, solvent Tert-butylmethylether): < 13 mg/mL
- solubility ([2]; tetrahydrofuran, organic solvent or mixture, solvent Tetrhydrofurane): 41 mg/mL (≈ 108 mM)
- solubility ([2]; solvent Water): < 12 mg/mL
- Thermodynamic stability of the crystalline form ([1]; polymorph screening study): thermodynamically stable
- Stability by XRPD (form found on XRPD re-analysis after storage) [1]: Form A
- Particle size D(v, 0.5) ([3]; listed as Batch 40019721): 6.4 μm
- Particle size D(v, 0.5) ([3]; listed as Batch 40019898): 5.4 μm
- Particle size D(v, 0.5) ([3]; listed as Batch 40019902): 6.7 μm
Compound: CC(CC(=O)O)[C@H]1CCC2[C@H]3C(CC[C@@]21C)[C@@]1(C)CCC(O)C[C@H]1C[C@@H]3O (stereo partly drawn) [Nor-UDCA, 3α,7β-dihydroxy-24-nor-5β-cholan-23oic acid]

Compound: C[C@H](CC(=O)O)[C@H]1CC[C@H]2[C@@H]3[C@@H](O)C[C@@H]4C[C@H](O)CC[C@]4(C)[C@H]3CC[C@]12C [Form C2]
- Stability by XRPD (form found on XRPD re-analysis after storage) [1]: Form A

Compound: C[C@H](CC(=O)O)[C@H]1CC[C@H]2[C@@H]3[C@@H](O)C[C@@H]4C[C@H](O)CC[C@]4(C)[C@H]3CC[C@]12C
- Median particle size (50% of the crystals this size or less) [4]: 13.37 μm
- Particle size that 60% of the crystals have or less [4]: 15.64 μm
- Particle size that 95% of the particles have or less [4]: 46.64 μm
- Share of particles with a particle size of 10 μm or less [4]: Less than 30%

— patent US9512167B2, “Optimized synthesis of pure, non-polymorphic, crystalline bile acids with defined particle size” (Dr. Falk Pharma GmbH, priority 2010, dated 2016)
